Measurements taken from patent publication US20110245104A1, “Method for screening the sensitizing properties of chemical compounds” (priority 2010, published 2011).
Entries after “also recorded” stand apart in the source; their conditions may differ. Where two headings read alike, the source gives them in different places.

Legend:
[1] = tested on: Normal human epidermal keratinocytes (HEKn); assay: Keratinocyte blebbing response, light microscopy (Example 1)
Description: Normal human epidermal keratinocytes (HEKn, Cascade Biologics, Portland, Oreg., USA) were maintained in phenol red-free EpiLife keratinocyte medium (Cascade Biologics) supplemented with 60 μM CaCl2, the antibiotics gentamicin/amphotericin and 1% (v/v) human keratinocyte growth supplement (HKGS; Cascade Biologics). Alternatively, Medium 154 containing 200 μM CaCl2 supplemented with HKGS (1% (v/v), without antibiotics is used. Cells were grown at 37° C. in a humidified 5% CO2 incubator. Final concentrations of the components in the supplemented medium were: bovine pituitary extract, 0.2% v/v; bovine insulin, […]; hydrocortisone, […]; bovine transferrin, […]; human epidermal growth factor, 0.2 ng/mL; optional: gentamicin, 10 μg/mL and amphotericin B, 0.25 μg/mL. All reagents were obtained from Cascade Biologics, Portland, Oreg., USA. The keratinocytes were used for experiments in the fifth or sixth passage.
HEKn cells in passage 6 were split and resuspended to 18500 cells/ml in medium 154 (Cascade Biologics) supplemented with 1% (v/v) human keratinocyte growth supplement (HKGS; Cascade Biologics, no antibiotics added). Cell suspension (0.5 ml) was added to each well in a 24 well plate (Nunc Multidishes Nunclon, Sigma Aldrich, Stockholm, Sweden) and incubated at 37° C., 5% CO2. The medium was replaced every second day by fresh 154 medium supplemented with HKGS (no antibiotics added) until cells had grown confluent.
The compounds to be tested (for example: mBBr, SDS, CDNB, nonanoic acid, HCA, oxazolone were purchased from Sigma Aldrich, qBBr, dBBr, glyoxal, and formaldehyde were obtained from Merck-Schuchardt, Darmstadt, Germany) were diluted in DMSO (Sigma Aldrich, Stockholm, Sweden) to final concentrations of 50 mM, 5 mM and 0.5 mM. These stock solutions were prepared fresh each time the experiment was performed. Alternatively, the mixture, solution, formulation, etc. can be used after dilution/dissolving in DMSO (to test the combined effects of the compounds in that particular preparation).
1) Cell preparation just prior to starting the experiment: the medium in the cell culture plate was replaced by 250 μl fresh Medium 154 (Cascade Biologics) supplemented with HKGS (1% (v/v) human keratinocyte growth supplement (HKGS; Cascade Biologics)) and the cells are kept at 37° C., 5% CO2.
2) Preparation of test compound in medium: 245 μl Medium 154 was added to 0.5 ml microtubes and preheated to 37° C. (waterbath). 5 μl of stock solution of compound was added to the microtubes containing preheated medium. These solutions were then added immediately to the cells in the 24-well plate.
3) The solutions in the microtubes (i.e. 250 μl medium+test compound) were added to each plate. The final concentration of each compound in the test was thus 0.5 mM, 0.05 mM, and 0.005 mM. The plate containing cells and test compounds was incubated for 24 hours at 37° C., 5% CO2.
4A) Each well was examined with a light microscope to determine the blebbing response (a Nikon TE300 inverted microscope) coupled to a digital camera.

[2] = tested on: anti-nuclear antibodies (ANA); assay: Anti-nuclear antibodies (ANA) in sera of mice topically exposed to haptens; assay type: in vivo; settings: topical exposure
[3] = tested on: serum amyloid P component (SAP); assay: Serum amyloid P component (SAP) in sera of mice exposed to sensitizers; assay type: in vivo; settings: sera of mice exposed to sensitizer
[4] = tested on: K5 and K14 in blebs from human keratinocytes; assay: Keratin content of blebs released from keratinocytes (Western blot); assay type: cell-based; settings: blebs from hapten-treated keratinocytes
Description: The quantification of the blebbing response was also made by observing: the amount of released protein (e.g. K5 and K14) through SDS-PAGE and western blots. Blebs were collected and lysed as described in example 4. SDS-PAGE: The samples were diluted (Blebs: 46 μg, 30 μl for blotting and 29.2 μg, 40 μl for SDS-PAGE. K14 and K5: 0.2 μg, 5 μl) with XT Sample Buffer 4X (BioRad, Hercules, Calif., USA) and milli-Q water. 1 μl DTT (2M) was added to each sample followed by heating at 96° C. for 2 minutes before application on the gel. Electrophoresis program: 200V, 400 mA, 50 W, 50 min. MOPS Running Buffer. The gels were fixed, scanned for fluorescence (excitation 480 nm, emission 530 nm) and coomassie stained (Bio-Safe™ Coomassie, BioRad, Hercules, Calif., USA). The gels are then used for quantitative measurement of proteins. Western Blot: Unfixed gels were blotted onto polyvinyldifluoride membranes (PVDF Ready-gel Blotting Sandwiches, 7×8.5 cm, BioRad, Hercules, Calif., USA). Blotting program: 70 V, 400 mA, 50 W, 30 min. Transfer buffer. Novex XCell II™ Blot Module (E19051, Novex, San Diego, Calif., USA). […]
The blebs in the supernatant was lysed with 4× freeze-thaw cycles using ethanol, dry ice and a 37° C. water bath. […] Total protein concentration was determined with Pierce BCA Protein Assay. […]

[5] = biological target: T1, cysteine 54 (C54) of K5 (Homo sapiens, UniProt P13647); assay: Haptenation site by LTQ-FT-ICR mass spectrometry; settings: full-thickness human skin and living human keratinocytes
T1 construct: endogenous in cells; host or cells: intact full-thickness human skin; living (primary) human keratinocytes
T1 sequence (P13647 1-590): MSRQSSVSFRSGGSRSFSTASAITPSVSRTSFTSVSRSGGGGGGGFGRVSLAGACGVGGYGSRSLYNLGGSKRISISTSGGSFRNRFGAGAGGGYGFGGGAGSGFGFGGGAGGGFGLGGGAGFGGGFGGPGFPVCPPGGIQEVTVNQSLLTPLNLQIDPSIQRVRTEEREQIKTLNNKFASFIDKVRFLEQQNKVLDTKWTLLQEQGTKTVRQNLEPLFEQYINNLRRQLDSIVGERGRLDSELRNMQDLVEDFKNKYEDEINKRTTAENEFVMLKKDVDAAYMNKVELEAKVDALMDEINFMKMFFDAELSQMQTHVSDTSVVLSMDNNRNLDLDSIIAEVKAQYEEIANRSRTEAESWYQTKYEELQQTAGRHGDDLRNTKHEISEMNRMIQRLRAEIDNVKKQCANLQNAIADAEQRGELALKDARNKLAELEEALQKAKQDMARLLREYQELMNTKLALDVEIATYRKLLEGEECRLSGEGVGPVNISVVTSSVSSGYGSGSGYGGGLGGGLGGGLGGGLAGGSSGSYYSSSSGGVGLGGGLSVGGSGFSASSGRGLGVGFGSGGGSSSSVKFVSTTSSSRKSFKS
T1 sequence (P02533 1-472 partner): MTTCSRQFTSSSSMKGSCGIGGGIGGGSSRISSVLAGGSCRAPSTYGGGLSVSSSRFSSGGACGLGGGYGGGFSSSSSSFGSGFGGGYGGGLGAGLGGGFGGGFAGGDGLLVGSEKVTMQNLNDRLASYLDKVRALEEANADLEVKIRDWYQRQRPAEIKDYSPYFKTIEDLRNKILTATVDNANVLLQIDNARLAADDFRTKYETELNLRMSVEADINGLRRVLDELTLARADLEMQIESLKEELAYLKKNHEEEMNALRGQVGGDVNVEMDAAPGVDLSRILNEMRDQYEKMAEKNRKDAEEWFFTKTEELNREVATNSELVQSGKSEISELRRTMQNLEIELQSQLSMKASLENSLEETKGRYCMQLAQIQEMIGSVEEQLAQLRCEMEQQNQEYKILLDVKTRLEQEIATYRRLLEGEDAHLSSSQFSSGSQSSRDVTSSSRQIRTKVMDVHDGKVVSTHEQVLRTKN
From the text: The second step is that the molecules enter the basal cells. Since the extracellular environment is oxidizing, extracellular cysteines are mostly oxidized to disulfides. However, it is in the reduced, intracellular environment that the haptens find reduced thiols to react with. Once inside the cells the compounds will react with available (i.e. not sterically hindered), reduced cysteines (thiol groups). […] Furthermore, it was identified that one of the cysteines that the haptens react with is cysteine 54 (C54) of K5. […] One of the reasons for intense reaction at C54 is presumably its high effective concentration just inside the cell membrane. It is vital in the life of an organism to fail-safe its epithelial integrity, and the bundling of the KIFs ensures a high effective local concentration of the peptide stretch containing C54, ensuring strong welding of the cell to its surroundings. Amino acids nearby in the primary sequence are consequently also located within physical reach of an incoming compound in similarly high effective concentrations. Looking at blebbing brought on by amine- and arginine-reactive compounds from this angle, the residues K71 and R72 are the closest candidates in the primary sequence.

[6] = tested on: human skin excerpts; assay: Labeling of human skin excerpts by caged haptens
From the text: The first step is that the molecules come into contact with the skin (the stratum corneum). Many of the reactive molecules react in the stratum corneum, something that can be seen in experiments with human skin excerpts and the caged (mBBr and dBBr) haptens. However, a significant proportion of the molecules penetrate further down to the suprabasal layers of the epidermis but also the follicular pathway is of importance for bringing xenobiotics into the skin. It is likely that the penetration is due both to the acidic pH of the stratum corneum (the molecules react more slowly when the pH is low), but also because many of the available groups have reacted. In the suprabasal layers, the haptens have a hard time penetrating the cells, as the cornification of the cells creates a thick, relatively impermeable envelope around the suprabasal cells. Consequently, the haptens penetrate down to the basal layer. Here, the cell membrane is much thinner and more fluidic and the molecules can thus enter the basal cells.

[7] = HEKn cells, tested at 0.5, 0.05 and 0.005 mM
[8] = HEKn cells, time 24 h and concentration 0.5 mM, visual inspection, blind
[9] = compound added to human keratinocytes

SMILES	Sensitizing potential, collective analysis of the three blebbing endpoints [1]	Concentration at which the cells produced blebs after 24 hours [1, 7]	Amount of blebs [1, 8]	Blebbing response of human keratinocytes (induced or not) [1, 9]	Level of anti-nuclear antibodies (ANA) in sera [2]	Level of serum amyloid P component (SAP) [3]	Keratins (K5 and K14) in blebs [4]	Blebbing response of human keratinocytes (induced or not) [1]	other results
O=CC=O [glyoxal]	moderate sensitizer	500 µM	+	provoke a blebbing response	increased levels	increased levels	contain K5 and K14; also recorded: contain keratins		
CCO/C=C1\N=C(c2ccccc2)OC1=O [oxazolone]	extreme sensitizer				increased levels		contain K5 and K14; also recorded: contain keratins	provoke a blebbing response	Amount of blebs [1]: +++; Time to blebbing [1]: 1.5 h
Cc1c(C)n2c(CBr)c(C)c(=O)n2c1=O [mBBr, monobromobimane]					increased levels				Covalent modification of C54 of K5 [5]: modify C54 of K5; also recorded: modifies C54 of K5; Labeling of cells in the basal layer [6]: cells in the basal layer are labeled
C=O [formaldehyde]								provoke a blebbing response	
CCCCCCC(C=O)=Cc1ccccc1 [HCA, α-hexyl cinnamic aldehyde]								did not induce blebbing at the tested concentrations	
O=[N+]([O-])c1ccc(Cl)c([N+](=O)[O-])c1 [CDNB, 1-chloro 2,4 dinitrobenzene]		500 µM	++	provoke a blebbing response	increased levels	increased levels			Time to blebbing ([1]; HEKn cells, inspected at 1.5, 2.5 and 24 h, tested at 0.5, 0.05 and 0.005 mM): 24 h; Sensitizing potential, collective analysis of the three blebbing endpoints ([1]; time to blebbing, concentration, amount of blebs combined): strong sensitizers
